ChEMBL document CHEMBL1121775, “Synthesis and antimalarial effects of N2-aryl-N4-[(dialkylamino)alkyl]- and N4-aryl-N2-[(dialkylamino)alkyl]-2,4-quinazolinediamines” (J Med Chem, 1981)
Values joined by “and” are separate entries in the source; they are usually repeats but may differ in a detail not shown here. Equal entries are not always repeated.

Experiments:
Plasmodium berghei [1] = assay: Antimalarial effect against trophozoite-induced Plasmodium berghei in mice (Mus musculus) after 20 mg/kg subcutaneous dose; type: functional
Plasmodium berghei [2] = assay: Antimalarial effect against trophozoite-induced Plasmodium berghei in mice (Mus musculus) at 320 mg/kg subcutaneous dose; type: functional
Plasmodium berghei [3] = assay: Antimalarial effect against trophozoite-induced Plasmodium berghei in mice (Mus musculus) after 40 mg/kg subcutaneous dose; type: functional
Plasmodium berghei [4] = assay: (§1) Antimalarial effect against trophozoite-induced Plasmodium berghei in mice (Mus musculus) at 640 mg/kg subcutaneous dose; type: functional; details: 640 mg/kg
Plasmodium berghei [5] = assay: Antimalarial effect against trophozoite-induced Plasmodium berghei in mice (Mus musculus) at 160 mg/kg subcutaneous dose; type: functional
Plasmodium berghei [6] = assay: Antimalarial activity against trophozoite-induced Plasmodium berghei in mice (Mus musculus); type: functional
Plasmodium berghei [7] = assay: Antimalarial effect against trophozoite-induced Plasmodium berghei in mice (Mus musculus) at 80 mg/kg subcutaneous dose; type: functional
Mus musculus [8] = assay: Number of toxic deaths at a dose of 320 mg/kg; type: toxicity, organism-based; parameters: dose 320 mg/kg; details: in vivo
Mus musculus [9] = assay: Number of toxic deaths at a dose of 640 mg/kg; type: toxicity, organism-based; parameters: dose 640 mg/kg; details: in vivo
[10] = The ratio of SD90 of the quinine hydrochloride, to the SD90 of the test substance for the Dose of >33 mg/kg; type: functional
Mus musculus [11] = assay: Number of mice cured at a dose of 640 mg/kg sc; type: functional; details: route subcutaneous
[12] = The ratio of SD90 of the quinine hydrochloride, to the SD90 of the test substance for the Dose of 11 mg/kg; type: functional
Mus musculus [13] = assay: Number of mice cured at a subcutaneous dose of 320 mg/kg.; type: functional
Plasmodium berghei [14] = assay: Antimalarial activity against trophozoite-induced Plasmodium berghei in mice (Mus musculus) at 160 mg/kg subcutaneous dose; type: functional; details: 160 mg/kg
Mus musculus [15] = assay: Antimalarial effect against trophozoite-induced Plasmodium berghei in mice (Mus musculus) at dosage of 160 mg/kg after subcutaneous administration;; type: functional
Mus musculus [16] = assay: Number of mice cured at a dose of 320 mg/kg sc; type: functional; details: route subcutaneous
Mus musculus [17] = assay: Antimalarial effect against trophozoite-induced Plasmodium berghei in mice (Mus musculus) at dosage of 80 mg/kg after subcutaneous administration; type: functional; details: 80 mg/kg
Mus musculus [18] = assay: Number of mice cured at a subcutaneous dose of 160 mg/kg.; type: functional
Mus musculus [19] = assay: Antimalarial effect against trophozoite induced Plasmodium berghei in mice (Mus musculus) at dosage of 40 mg/kg after subcutaneous administration; type: functional
[20] = (§2) Number of mice cured at a dose of 40 mg/kg sc; type: functional; details: route subcutaneous
Mus musculus [21] = assay: as §2; type: functional; details: route subcutaneous
[22] = Number of mice cured at a dose of 80 mg/kg sc; type: functional; details: route subcutaneous
[23] = The ratio of SD90 of the quinine htdrocloride, to the SD90 of the test substance for the Dose of 8.5 mg/kg; type: functional
[24] = The ratio of SD90 of the quinine hydrochloride, to the SD90 of the test substance for the Dose of 40 mg/kg; type: functional
Mus musculus [25] = assay: Number of mice cured at a subcutaneous dose of 640 mg/kg.; type: functional
[26] = The ratio of SD90 of the quinine hydrochloride, to the SD90 of the test substance for the Dose of 6 mg/kg; type: functional
[27] = The ratio of SD90 of the quinine hydrochloride, to the SD90 of the test substance for the Dose of 120 mg/kg; type: functional
Plasmodium berghei [28] = assay: as §1; type: functional
[29] = The ratio of SD90 of the quinine hydrochloride, to the SD90 of the test substance for the Dose of 30 mg/kg; type: functional
[30] = The ratio of SD90 of the quinine hydrochloride, to the SD90 of the test substance for the Dose of 6.3 mg/kg; type: functional
Mus musculus [31] = assay: Number of mice cured at a dose of 160 mg/kg sc; type: functional; details: route subcutaneous
[32] = The ratio of SD90 of the quinine hydrochloride, to the SD90 of the test substance for the Dose of 17.5 mg/kg; type: functional

SMILES | MST (Plasmodium berghei [1]) [days] | MST (Plasmodium berghei [2]) [days] | MST (Plasmodium berghei [3]; 40 mg/kg) | MST (Plasmodium berghei [4]) | MST (Plasmodium berghei [5]; 160 mg/kg) | SD90 (Plasmodium berghei [6]) [mg/kg/day] | MST (Plasmodium berghei [7]) [days] | No. of survivals (Mus musculus [11]) | also measured
CCOc1ccc(Nc2nc(NCCN(CC)CC)c3cc(Cl)ccc3n2)cc1CN1CCCC1 | 0.2 | 7.8 | 0.6 days and 0.2 days | 13.3 days and 12.8 days | 4.8 days and 4.6 days | >33 | 1 | – | No. of toxic deaths (Mus musculus [8]): 2; No. of toxic deaths (Mus musculus [9]): 3; Ratio [10]: <2.3
OC1CCCN(CCCNc2nc(Nc3ccc(Cl)cc3)nc3ccccc23)C1 (configuration not stated) | 0.2 | 17.5 | 2.2 days and 2.5 days | 26.1 days and 23.9 days | 10.4 days and 11.3 days | 11 | 4.6 | 2 | Ratio [12]: 6.8; No. of survivals (Mus musculus [13]): 2
CCN(CC)C1CCC(Nc2nc(Nc3cc(Cl)cc(Cl)c3)nc3ccccc23)CC1 (stereo in doubt; 35) | – | – | – | – | – | 8.5 | – | 5 | MST (Plasmodium berghei [1]; 20 mg/kg): 5.5 days; MST (Plasmodium berghei [14]): 24.9 days; MST (Mus musculus [15]): 23.9 days; No. of survivals (Mus musculus [16]): 5; MST (Mus musculus [17]): 21.9 days; No. of survivals (Mus musculus [18]; 160 mg/kg): 4 and 3; MST (Mus musculus [19]): 9.6 days and 8.9 days; No. of survivals [20]: 2; No. of survivals (Mus musculus [21]): 2; No. of survivals [22]: 4; Ratio [23]: 8.8
CCN(CC)CCNc1nc(Nc2ccc(OC)c(CN(CC)CC)c2)nc2ccccc12 | 0.4 | – | – | – | – | 40 | 5.6 | 2 | MST (Plasmodium berghei [3]): 2.8 days; MST (Plasmodium berghei [5]): 8.6 days; No. of toxic deaths (Mus musculus [8]): 1; No. of toxic deaths (Mus musculus [9]): 1; Ratio [24]: 1.9; No. of survivals (Mus musculus [13]): 2
CN1CCCC1CCNc1nc(Nc2cccc(Br)c2)nc2ccccc12 (configuration not stated) | 1.6 | 15 | 5.2 days and 4.5 days | 20.3 days and 21.9 days | 11.4 days and 11.7 days | 6 | 7.8 | – | No. of cured (Mus musculus [25]; 640 mg/kg): 3 and 2; Ratio [26]: 12.4
CCN(CC)CCNc1nc(Nc2cc(Cl)cc(Cl)c2)nc2ccccc12 | 0.2 | 12.2 | – | 22.1 days and 20.8 days | 8.2 days and 9 days | 120 | 3.2 | – | No. of survivals (Mus musculus [11]; 640 mg/kg): 2 and 3; Ratio [27]: 0.6
CCN(CC)CCNc1nc(Nc2ccc(Cl)c(Cl)c2)nc2ccc([N+](=O)[O-])cc12 | – | – | 0.4 days and 0.7 days | – | 7 days and 7.3 days | 30 | – | – | MST (Plasmodium berghei [1]; 20 mg/kg): 0.2 days and 0.3 days; MST (Plasmodium berghei [2]; 320 mg/kg): 10.4 days and 10.9 days; MST (Plasmodium berghei [28]): 20.6 days; MST (Plasmodium berghei [7]; 80 mg/kg): 1.2 days and 1.5 days; Ratio [29]: 2.5
Clc1ccc(Nc2nc(NCCCN3CCCC3)c3ccccc3n2)cc1Cl | – | – | – | – | – | 12 | – | 5 | MST (Plasmodium berghei [3]): 5.2 days; No. of survivals (Mus musculus [18]): 4; Ratio [30]: 12
CCN(CC)C1CCCC(Nc2nc(Nc3ccc(Cl)c(Cl)c3)nc3ccccc23)C1 (configuration not stated) | 1 | – | 5 days and 4.8 days | – | – | 17.5 | 8 | – | MST (Plasmodium berghei [14]): 22.8 days and 23.1 days; No. of cured (Mus musculus [31]): 2; No. of cured (Mus musculus [16]): 5; No. of cured (Mus musculus [25]): 5; Ratio [32]: 4.2
